In patent publication US6555114B1, “Immunodominant human T-cell epitopes of hepatitis C virus” (Innogenetics N.V., priority 1993, dated 2003):

Experiments:
[1] = system: PBMC from 32 patients with chronic HCV; experiment: T cell proliferation assay ((3H)-thymidine incorporation, stimulation index) with PBMC of chronic HCV patients; format: cell-based, human; details: for number of patients that recognized the single peptide: 8 proliferative responders to pools 2 and/or 3 among 11 interferon-responder HCV patients; for LPR in αIFN responders (summary of Table 7): both αIFN responders tested; for lymphoproliferative response (LPR) to peptide pools and single peptides: IFN responder, LPR to pools 2 and/or 3; for LPR in αIFN non-responders (summary of Table 7): two αIFN non-responders
[2] = system: PBMC's from 18 healthy control subjects; experiment: T cell proliferation assay with PBMC of healthy control subjects; format: cell-based, human; details: 17 control subjects, 23 proliferation assays
Experimental: As controls for the specificity of the lymphoproliferative responses, 18 healthy individuals aged 25-58 years (mean 38.6), 10 males and 8 females were selected. These subjects were negative for HCV antibodies and HCV-RNA.
The medium used for all cell cultures consisted of RPMI 1640 supplemented with 25 mM HEPES, 2 mM L-glutamine, 50 U/ml penicillin and 50 μg/ml streptomycin (all from Gibco Europe, Gent, Belgium), 5×10^−5 M 2-mercaptoethanol (Sigma, St. Louis, Mo.) and 10% heat-inactivated pooled human AB serum. This AB serum was obtained from healthy blood donors with blood group AB^+ and was only used when antibodies to HCV and HCV-RNA were absent. This “complemented” RPMI 1640 medium will hereafter be designated “complete medium”.
PBMC were isolated from heparinized venous blood by isopycnic density centrifugation on Ficoll Hypaque (Lymphoprep, Nyegaard, Denmark) and suspended in complete medium. […] PBMC in 200 μl of complete medium were cultured in 96 well round-bottomed microplates (Falcon Plastics) in the absence (unstimulated controls) or presence of varying concentrations of antigens for 5 days at 37° C. in an atmosphere of 5% CO2 in air. 0.5 μCi (^3H)-thymidine was then added to each well and 16 to 20 h later the cultures were harvested onto glass fiber filters using a multichannel cell harvester (PHD, Cambridge, Mass.) to measure the incorporation of (^3H)-thymidine by liquid scintillation counting in an LKB-Wallac 8100 counter (LKB, Bromma, Sweden). Results are expressed as stimulation index (SI; mean cpm of antigen-stimulated cultures/mean cpm of control cultures). Proliferation was considered positive when stimulation index was >3. In some figures the results are expressed as cpm (mean cpm of antigen-stimulated cultures—mean cpm of control cultures). Standard deviations of the mean cpm of triplicate cultures were consistently below 10%.
To analyze and summarize the results of 135 assays performed in the 32 HCV patients, we have chosen to consider the response of an individual patient to a particular antigen preparation (peptide pools 1 to 9, NS1-5*, NS1-7* or NS3 protein) as significant when it induces SI's 3 in at least half of the assays performed. The results shown in Table 4 have been obtained using this scoring method. […] The start of the Interferon therapy serves as the reference point, week 0. None of the patients responded to all the antigens. PBMC's from 13 of 18 (72%) clinical responders and 12 of 14 (85%) non-responders proliferated in response to at least one antigen preparation. All but one antigen preparation, peptide pool 8, induced a proliferative response in at least one subject. The most frequent responses were to peptide pools 2 and 3. Whereas both interferon-responders and non-responders proliferated equally well to peptide pool 2 (56% and 57%, respectively), non-responders reacted less well to peptide pool 3 (29% or 4 of 14) than responders (44% or 8 of 18). […] Clinical non-responders to interferon therapy also reacted more frequently (57 or 8 of 14) upon stimulation with the NS3 protein than responders (24% or 4 of 17). However, none of these differences in proliferative response rates to peptide pools 3, 5 and 9 or to NS3 protein reached statistical significance ([…] in ^2-test). […] Indeed, 8 of 17 responders recognized one or both peptides while none of the non-responders did so. A summary of the results of all these proliferation assays is provided in FIG. 2, in which the response rates of the HCV patients as well as 18 healthy control subjects towards the 12 antigen preparations. Indeed, to establish the relevance of the proliferative responses observed in HCV patients, PBMC's from 18 healthy control subjects were stimulated with the same antigen preparations. Overall, 27 assays were performed: a single assay in 10 subjects, two in 7 volunteers and 3 in one individual. In 12 control subjects none of the antigens induced a proliferative response. […]

[3] = patient 618, pools 4 assays, single peptides 1 assay
[4] = patient 620, αIFN non-responder (NR), week 20 of αIFN therapy
[5] = patient 621, pools 4 assays, single peptides 1 assay
[6] = patient 626, pools 9 assays, single peptides 5 assays
[7] = patient 626, αIFN responder (R), week 14 of αIFN therapy
[8] = patient 627, αIFN non-responder (NR), week 54 of αIFN therapy
[9] = patient 632, pools 8 assays, single peptides 4 assays
[10] = patient 636, αIFN responder (R), week 28 of αIFN therapy
[11] = patient 637, αIFN non-responder (NR), week 45 of αIFN therapy
[12] = patient 639, pools 4 assays, single peptides 2 assays
[13] = patient 615, pools 2 assays, single peptides 1 assay
[14] = patient 634, pools 2 assays, single peptides 1 assay

Substance	number of patients that recognized the single peptide [1]	LPR in αIFN responders (summary of Table 7) [1]	lymphoproliferative response (LPR) to peptide pools and single peptides [1, 3]	stimulation index (SI), T-cell recognition [1, 4]	lymphoproliferative response (LPR) to peptide pools and single peptides [1, 5]	lymphoproliferative response (LPR) to peptide pools and single peptides [1, 6]	stimulation index (SI), T-cell recognition [1, 7]	stimulation index (SI), T-cell recognition [1, 8]	lymphoproliferative response (LPR) to peptide pools and single peptides [1, 9]	stimulation index (SI), T-cell recognition [1, 10]	stimulation index (SI), T-cell recognition [1, 11]	lymphoproliferative response (LPR) to peptide pools and single peptides [1, 12]	LPR in αIFN non-responders (summary of Table 7) [1]	number of control subjects that recognized the single peptide [2]	share of control subjects that recognized the single peptide [2]	lymphoproliferative response (LPR) to peptide pools and single peptides ([1]; patient 604, pools 2 assays, single peptides 1 assay)	lymphoproliferative response (LPR) to peptide pools and single peptides [1, 13]	lymphoproliferative response (LPR) to peptide pools and single peptides [1, 14]
GGAARALAHGVRVLEDGVNY (hepatitis C virus) [C25]	5	highest LPR	+ (significant when it induces SI's 3 in at least half of the assays performed)	— (Only SI equal or greater than 3 are shown.)	+ (significant when it induces SI's 3 in at least half of the assays performed)	+ (significant when it induces SI's 3 in at least half of the assays performed)	6	— (Only SI equal or greater than 3 are shown.)	+ (significant when it induces SI's 3 in at least half of the assays performed)	9.7	— (Only SI equal or greater than 3 are shown.)	+ (significant when it induces SI's 3 in at least half of the assays performed)						
GRTWAQPGYPWPLYGNEGCG (hepatitis C virus) [C13]		highest LPR					4.4	— (Only SI equal or greater than 3 are shown.)		6.3	— (Only SI equal or greater than 3 are shown.)							
KVIDTLTCGFADLMGYIPLV (hepatitis C virus) [C21]		highest LPR					3.3	3.6	+ (significant when it induces SI's 3 in at least half of the assays performed)	— (Only SI equal or greater than 3 are shown.)	— (Only SI equal or greater than 3 are shown.)		high PLR	1	6%			
LMGYIPLVGAPLGGAARALA (hepatitis C virus) [C23]	3			4.1			— (Only SI equal or greater than 3 are shown.)	— (Only SI equal or greater than 3 are shown.)	+ (significant when it induces SI's 3 in at least half of the assays performed)	— (Only SI equal or greater than 3 are shown.)	— (Only SI equal or greater than 3 are shown.)		high PLR			+ (significant when it induces SI's 3 in at least half of the assays performed)	+ (significant when it induces SI's 3 in at least half of the assays performed)	
LPGCSFSIFLLALLSCLTVP [C29]				— (Only SI equal or greater than 3 are shown.)			— (Only SI equal or greater than 3 are shown.)	— (Only SI equal or greater than 3 are shown.)		— (Only SI equal or greater than 3 are shown.)	— (Only SI equal or greater than 3 are shown.)							
LYGNEGCGWAGWLLSPRGSR (hepatitis C virus) [C15]							— (Only SI equal or greater than 3 are shown.)	— (Only SI equal or greater than 3 are shown.)		— (Only SI equal or greater than 3 are shown.)	— (Only SI equal or greater than 3 are shown.)							
PTDPRRRSRNLGKVIDTLTC (hepatitis C virus) [C19]	3	highest LPR					— (Only SI equal or greater than 3 are shown.)	— (Only SI equal or greater than 3 are shown.)	+ (significant when it induces SI's 3 in at least half of the assays performed)	7.1	— (Only SI equal or greater than 3 are shown.)	+ (significant when it induces SI's 3 in at least half of the assays performed)						+ (significant when it induces SI's 3 in at least half of the assays performed)
Tetanus toxoid [TT, reference compound]				4.1			14.5	19.1		3.6	4.2							
VLEDGVNYATGNLPGCSFSI (hepatitis C virus) [C27]	6	highest LPR	+ (significant when it induces SI's 3 in at least half of the assays performed)	— (Only SI equal or greater than 3 are shown.)	+ (significant when it induces SI's 3 in at least half of the assays performed)	+ (significant when it induces SI's 3 in at least half of the assays performed)	8.2	— (Only SI equal or greater than 3 are shown.)	+ (significant when it induces SI's 3 in at least half of the assays performed)	5.8	— (Only SI equal or greater than 3 are shown.)	+ (significant when it induces SI's 3 in at least half of the assays performed)					+ (significant when it induces SI's 3 in at least half of the assays performed)	+ (significant when it induces SI's 3 in at least half of the assays performed)
